Key:
[1] = enterocloster bolteae, 12 h, 2 µM
Description: The drug is tested on Clostridium bolteae strain: ATCCBAA-613 for biotransformation. The drug concentrations were measured before and after a 12-h incubation by liquid-chromatography-coupled mass spectrometry (LC–MS)

[2] = The drug is tested on Bacteroides ovatus strain: ATCC8483 for biotransformation. The drug concentrations were measured before and after a 12-h incubation by liquid-chromatography-coupled mass spectrometry (LC–MS); conditions: 2 µM
[3] = The drug is tested on Bacteroides fragilis strain: ATCC43859 for biotransformation. The drug concentrations were measured before and after a 12-h incubation by liquid-chromatography-coupled mass spectrometry (LC–MS); conditions: 2 µM
[4] = The drug is tested on Clostridium sp. strain: fecal isolate for biotransformation. The drug concentrations were measured before and after a 12-h incubation by liquid-chromatography-coupled mass spectrometry (LC–MS); conditions: 2 µM
[5] = The drug is tested on Eubacterium ventriosum strain: ATCC27560 for biotransformation. The drug concentrations were measured before and after a 12-h incubation by liquid-chromatography-coupled mass spectrometry (LC–MS); type: ADME; design: dose 2 uM, timepoint 0 vs 12 hours; conditions: 2 µM
[6] = The drug is tested on Blautia hansenii strain: DSM20583 for biotransformation. The drug concentrations were measured before and after a 12-h incubation by liquid-chromatography-coupled mass spectrometry (LC–MS); conditions: 2 µM
[7] = The drug is tested on Eubacterium hallii strain: DSM3353 for biotransformation. The drug concentrations were measured before and after a 12-h incubation by liquid-chromatography-coupled mass spectrometry (LC–MS); conditions: anaerobutyricum hallii, 2 µM
[8] = parabacteroides distasonis, 12 h, 2 µM
Description: The drug is tested on Parabacteroides distasonis strain: ATCC8503 for biotransformation. The drug concentrations were measured before and after a 12-h incubation by liquid-chromatography-coupled mass spectrometry (LC–MS)

[9] = The drug is tested on Bacteroides pectinophilus strain: ATCC43243 for biotransformation. The drug concentrations were measured before and after a 12-h incubation by liquid-chromatography-coupled mass spectrometry (LC–MS); conditions: 2 µM
[10] = The drug is tested on Coprococcus comes strain: ATCC27758 for biotransformation. The drug concentrations were measured before and after a 12-h incubation by liquid-chromatography-coupled mass spectrometry (LC–MS); type: ADME; design: dose 2 uM, timepoint 0 vs 12 hours; conditions: 2 µM
[11] = The drug is tested on Ruminococcus gnavus strain: ATCC29149 for biotransformation. The drug concentrations were measured before and after a 12-h incubation by liquid-chromatography-coupled mass spectrometry (LC–MS); conditions: mediterraneibacter gnavus, 2 µM
[12] = The drug is tested on Bifidobacterium longum subsp. Infantis strain: CCUG52486 for biotransformation. The drug concentrations were measured before and after a 12-h incubation by liquid-chromatography-coupled mass spectrometry (LC–MS); conditions: 2 µM
[13] = The drug is tested on Escherichia coli strain: BW25113 for biotransformation. The drug concentrations were measured before and after a 12-h incubation by liquid-chromatography-coupled mass spectrometry (LC–MS); conditions: 2 µM
[14] = The drug is tested on Bacteroides dorei strain: DSM17855 for biotransformation. The drug concentrations were measured before and after a 12-h incubation by liquid-chromatography-coupled mass spectrometry (LC–MS); conditions: phocaeicola dorei, 2 µM
[15] = The drug is tested on Ruminococcus lactaris strain: ATCC29176 for biotransformation. The drug concentrations were measured before and after a 12-h incubation by liquid-chromatography-coupled mass spectrometry (LC–MS); conditions: 2 µM
[16] = The drug is tested on Parabacteroides merdae strain: ATCC43184 for biotransformation. The drug concentrations were measured before and after a 12-h incubation by liquid-chromatography-coupled mass spectrometry (LC–MS); conditions: 2 µM
[17] = bacteroides stercoris, 12 h, 2 µM
Description: The drug is tested on Bacteroides stercoris strain: ATCC43183 for biotransformation. The drug concentrations were measured before and after a 12-h incubation by liquid-chromatography-coupled mass spectrometry (LC–MS)

[18] = The drug is tested on Eubacterium rectale strain: ATCC33656 for biotransformation. The drug concentrations were measured before and after a 12-h incubation by liquid-chromatography-coupled mass spectrometry (LC–MS); conditions: agathobacter rectalis, 2 µM
[19] = The drug is tested on Subdoligranulum variabile strain: DSM15176 for biotransformation. The drug concentrations were measured before and after a 12-h incubation by liquid-chromatography-coupled mass spectrometry (LC–MS); conditions: 2 µM

Row | SMILES | Bacterial Biotransformation [1] | Bacterial Biotransformation [2] | Bacterial Biotransformation [3] | Bacterial Biotransformation [4] | Bacterial Biotransformation [5] | Bacterial Biotransformation [6] | Bacterial Biotransformation [7] | Bacterial Biotransformation [8] | Bacterial Biotransformation [9] | Bacterial Biotransformation [10] | Bacterial Biotransformation [11] | Bacterial Biotransformation [12] | Bacterial Biotransformation [13] | Bacterial Biotransformation [14] | Bacterial Biotransformation [15] | Bacterial Biotransformation [16] | Bacterial Biotransformation [17] | Bacterial Biotransformation [18] | Bacterial Biotransformation [19]
1 | CC(C)(C)N.CCC[C@H](N[C@@H](C)C(=O)N1[C@H](C(=O)O)C[C@@H]2CCCC[C@@H]21)C(=O)OCC [PERINDOPRIL ERBUMINE] | Compound NOT metabolized | Compound NOT metabolized | Compound NOT metabolized | Compound NOT metabolized | Compound NOT metabolized | Compound NOT metabolized | Compound NOT metabolized | Compound NOT metabolized | Compound NOT metabolized | Compound NOT metabolized | Compound NOT metabolized | Compound NOT metabolized | Compound NOT metabolized | Compound NOT metabolized | Compound NOT metabolized |  |  |  | 
2 | COc1ccc2c(c1)c(CC(=O)O)c(C)n2C(=O)c1ccc(Cl)cc1 [INDOMETHACIN] | Compound metabolized | Compound metabolized | Compound metabolized | Compound NOT metabolized | Compound metabolized | Compound NOT metabolized | Compound NOT metabolized | Compound metabolized | Compound metabolized | Compound NOT metabolized | Compound NOT metabolized | Compound metabolized | Compound metabolized | Compound metabolized |  | Compound metabolized | Compound metabolized | Compound NOT metabolized | 
3 | CC(C)(C)NC(=O)[C@H]1CC[C@H]2[C@@H]3CC[C@H]4NC(=O)C=C[C@]4(C)[C@H]3CC[C@]12C [FINASTERIDE] | Compound NOT metabolized | Compound NOT metabolized | Compound metabolized | Compound NOT metabolized | Compound NOT metabolized | Compound NOT metabolized | Compound NOT metabolized | Compound NOT metabolized | Compound NOT metabolized | Compound NOT metabolized | Compound NOT metabolized | Compound NOT metabolized | Compound NOT metabolized | Compound metabolized | Compound NOT metabolized | Compound NOT metabolized | Compound NOT metabolized | Compound NOT metabolized | 
4 | CC(C)[C@H]1CC[C@H](C(=O)N[C@H](Cc2ccccc2)C(=O)O)CC1 [NATEGLINIDE] | Compound NOT metabolized | Compound NOT metabolized | Compound metabolized | Compound NOT metabolized | Compound NOT metabolized | Compound NOT metabolized | Compound NOT metabolized | Compound NOT metabolized | Compound NOT metabolized | Compound NOT metabolized | Compound NOT metabolized | Compound metabolized | Compound NOT metabolized |  | Compound NOT metabolized | Compound NOT metabolized | Compound NOT metabolized | Compound NOT metabolized | 
5 | CN1CCc2c(c3ccccc3n2Cc2ccccc2)C1.CN1CCc2c(c3ccccc3n2Cc2ccccc2)C1.O=S(=O)(O)c1cccc2c(S(=O)(=O)O)cccc12 | Compound NOT metabolized | Compound NOT metabolized | Compound NOT metabolized | Compound NOT metabolized | Compound NOT metabolized | Compound NOT metabolized | Compound NOT metabolized |  | Compound NOT metabolized | Compound NOT metabolized | Compound NOT metabolized | Compound NOT metabolized | Compound NOT metabolized | Compound NOT metabolized |  | Compound NOT metabolized | Compound NOT metabolized | Compound NOT metabolized | 
6 | CC(C)N(CCC(C(N)=O)(c1ccccc1)c1ccccn1)C(C)C.O=P(O)(O)O (stereo not drawn) [DISOPYRAMIDE PHOSPHATE] | Compound NOT metabolized | Compound NOT metabolized | Compound NOT metabolized |  | Compound NOT metabolized |  | Compound NOT metabolized | Compound NOT metabolized | Compound NOT metabolized | Compound NOT metabolized | Compound NOT metabolized | Compound NOT metabolized |  | Compound NOT metabolized | Compound NOT metabolized | Compound NOT metabolized | Compound NOT metabolized | Compound NOT metabolized | Compound NOT metabolized
7 | COc1ccc2cc([C@H](C)C(=O)O)ccc2c1 [NAPROXEN] | Compound NOT metabolized |  | Compound metabolized | Compound NOT metabolized | Compound NOT metabolized | Compound NOT metabolized | Compound NOT metabolized | Compound NOT metabolized | Compound NOT metabolized | Compound NOT metabolized | Compound NOT metabolized | Compound NOT metabolized | Compound NOT metabolized | Compound NOT metabolized | Compound NOT metabolized |  |  | Compound NOT metabolized | 
8 | CN1CCOC(c2ccccc2)c2ccccc2C1 (stereo not drawn) [NEFOPAM] | Compound NOT metabolized | Compound NOT metabolized | Compound NOT metabolized |  | Compound NOT metabolized |  | Compound NOT metabolized | Compound NOT metabolized | Compound NOT metabolized | Compound NOT metabolized | Compound NOT metabolized | Compound NOT metabolized |  |  | Compound NOT metabolized | Compound NOT metabolized | Compound NOT metabolized | Compound NOT metabolized | Compound NOT metabolized
9 | Cc1cc2c(s1)Nc1ccccc1N=C2N1CCN(C)CC1 [OLANZAPINE] | Compound NOT metabolized |  |  |  | Compound NOT metabolized |  | Compound NOT metabolized | Compound NOT metabolized | Compound NOT metabolized | Compound NOT metabolized | Compound NOT metabolized | Compound NOT metabolized | Compound NOT metabolized | Compound NOT metabolized | Compound NOT metabolized |  | Compound NOT metabolized | Compound NOT metabolized | Compound NOT metabolized
